# Assay results reported in US9931350B2, “Anti-infective and osteogenic compositions and methods of use” (BRIGHAM YOUNG UNIVERSITY, priority 2014, dated 2018).
# Tests used:
# [1] = tested on: methicillin-resistant S. aureus (MRSA); assay: MIC against methicillin-resistant S. aureus; format: cell-based; details: Staphylococcus aureus, TSB, 37° C., 24 hours
# Method: (§1) Representative Procedure for Measuring MIC Values: A suspension is prepared of bacteria containing ˜10^6CFU (colony forming units)/mL from a culture incubated in TSB at 37° C. for 24 hours. Aliquots of 1 mL of the suspension are added to test tubes containing 1 mL TSB and incrementally varied concentrations of CSA compound. The samples are subjected to stationary incubation at 37° C. for 24 hours. Sample turbidity is determined by measuring absorption at 760 nm (HP 8453 UV-Visible Chemstation, Hewlett Packard). Additionally, an alliquot from each of the samples showing no measurable turbidity is subcultured on TSA plates (alliquots were diluted to provide fewer than 300 CFU). Colonies that grow on the subculture after overnight incubation are counted and the number of CFU/mL in the samples is calculated. The calculated values are compared to the number of CFU/mL in the original inoculum. MIC values are determined as the concentrations of the studied compounds at which the number of CFU/mL remained constant or decreased after incubation for 24 hours. CSA compounds were screened against methicillin-resistant S. aureus (MRSA) and tobramycin-resistant P. aeruginosa (TRPA).
# [2] = tested on: tobramycin-resistant P. aeruginosa (TRPA); assay: MIC against tobramycin-resistant P. aeruginosa; format: cell-based; details: Pseudomonas aeruginosa; TSB, 37° C., 24 hours
# Method: as §1
# ectopic bone formation = assay: Mammalian ectopic bone formation model; format: in vivo, mouse
# Source text: Bone formation was examined by XR (Faxitron) and quantified by microCT (Skyscan 1174). Bone nodules were also examined by histology.
# open fracture = assay: Mammalian open fracture model, without bacteria inoculation; format: in vivo, rats
# Source text: (§2) In this model, infection was initiated by delivery of 10^4 CFU of pathogenic Staphlococcus aureus in ACS at the time of surgery. […] The primary outcome measure was the number of animals culled with infected fractures. Animal health and radiographic bone healing were monitored by an experienced veterinarian in a blinded fashion to inoculation or treatment. Animals diagnosed as having progressively deteriorating condition with XRs showing evidence of infection were culled and infection confirmed by culture swab post-mortem. Secondary outcome measures included union at 3 weeks and 6 weeks (excluding pin-slippage), and bone callus microCT measures at 6 weeks.
# Staphlococcus aureus = assay: Mammalian open fracture model, inoculated with S. aureus; format: in vivo, rats
# Source text: as §2
Structure (SMILES),MIC [1],MIC [2],"Mean bone volume by microCT (ectopic bone formation; 25 μg CSA-90 added to 10 μg rhBMP-2 in ACS, P=0.02)","Mean bone volume by microCT (ectopic bone formation; 250 μg CSA-90 added to 10 μg rhBMP-2 in ACS, P<0.01)","Osteoclast number, histological assessment (ectopic bone formation; CSA-90 treatment)","Histological assessment of bone nodules (ectopic bone formation; rhBMP-2 treated groups, CSA-90 treatment alone (250 μg))","Union rate at 3 weeks (open fracture; 3 weeks, treated groups with and without inoculation)",Union rate by 6 weeks (open fracture; 6 weeks),Pin Slip Cull Rate (open fracture; no bacteria),"Infected Cull Rate (open fracture; no bacteria, 250 μg CSA-90 and/or 10 μg rhBMP-2 via ACS)","# Infected Culls (open fracture; no bacteria, animals/group)","# Pin Slips (open fracture; no bacteria, animals/group)",Pin Slip Cull Rate (Staphlococcus aureus; 10^4 cfu Staph),"Infected Cull Rate (Staphlococcus aureus; 10^4 cfu Staph, 250 μg CSA-90 and/or 10 μg rhBMP-2 via ACS)","# Infected Culls (Staphlococcus aureus; 10^4 cfu Staph, animals/group)","# Pin Slips (Staphlococcus aureus; 10^4 cfu Staph, animals/group)",Animals culled with a pin slip (no infection seen in culture) (Staphlococcus aureus; inoculated group),Animals culled with infected fractures (Staphlococcus aureus; inoculated with S. aureus)
CCCCCN(CCCCC)CCC[C@@H](C)[C@H]1CC[C@H]2[C@@H]3[C@H](OCCCN)C[C@@H]4C[C@H](OCCCN)CC[C@]4(C)[C@H]3C[C@H](OCCCN)[C@]12C [CSA-90],0.6 µg/mL,3 µg/mL,significantly increased,significantly increased,no significant decrease,evidence of localized tissue mineralization,~50%,increased but not to 100%,0%,0%,0/6,0/6,20%,0%,0/5,1/5,one,no infected culls
CCCCCCCCN(CCCCCCCC)CCC[C@@H](C)[C@H]1CC[C@H]2[C@@H]3[C@H](OCCCN)C[C@@H]4C[C@H](OCCCN)CC[C@]4(C)[C@H]3C[C@H](OCCCN)[C@]12C [CSA-91],5 µg/mL,6 µg/mL,,,,,,,,,,,,,,,,
